Structures are written as SMILES.

Data set [1] in a line: Ichthyotoxicity in Carassius auratus. Type of data set: organism-based. As to conditions: in vivo.
A short description of data set [2]: Activation of voltage-sensitive sodium channel in mouse neuro2a cells. Type of data set: cell-based. As to conditions: N2a.

In general, LC50 refers to the concentration that kills 50% of the test population. One may read the EC50 as the midpoint of the concentration-response curve. Read a high EC50 as lower potency in that assay. The compound `C=C1CC(=O)N[C@@H](C)C(=O)N(C)[C@@H](CCc2ccccc2)C(=O)NCC(=O)O[C@@H](/C(C)=C/C(C)=C/C(C)(C)C)[C@@H]1C` [ANTILLATOXIN B] yielded an LC50 in data set [1] of 1000 nM. Further, the half-maximal effective concentration (EC50) in data set [2] was determined as 1770 nM.
Turning to `C=C1CC(=O)N[C@@H](C)C(=O)N(C)[C@@H](C(C)C)C(=O)NCC(=O)O[C@@H](/C(C)=C/C(C)=C/C(C)(C)C)[C@@H]1C` [ANTILLATOXIN], the half-maximal effective concentration (EC50) in data set [2] is 180 nM. This counts as sub-micromolar.
